# Earlier results as cited in patent US11877998B2, “Supplement composition” (H & H SCIENCE, LLC, priority 2017, dated 2024).
# Columns and labels:
# [1] = test system: nonmelanoma skin cancer; conditions: oral, high risk group
# [2] = test system: retinol-binding proteins (RBPs); conditions: acne patients, oral, after four weeks
# [3] = test system: hair growth; conditions: men taking supplements
Compound,serum levels of retinol-binding proteins (RBPs) [2],also measured
"O=C(O)c1cccnc1 [oral niacin, niacin]",–,reduction of nonmelanoma skin cancer [1]: by a quarter
[Zn] [zinc],not observed,–
vitamin A [oral vitamin A],not observed,–
vitamin E,–,hair growth versus placebo [3]: grew more hair
